Patent US20180071354A1, “SELECTIVE BREEDING METHOD OF ANTITUMOR/ANTICANCER CAMELLIA SINENSIS STRAIN, AND TEA PRODUCT OF SUCH STRAIN” (FUJIAN AGRICULTURE AND FORESTRY UNIVERSITY, priority 2015, published 2018)
≈ marks a conversion by molar mass, not a printed value.

Assays:
Assay type in all cases: cell-based
[1] = tested on: human gastric cancer cell line BGC-823; assay: In vitro antitumor/anticancer testing (CCK-8), BGC-823; details: Homo sapiens, BGC-823, 48 h
Procedure: (§1) Each of Tea Product 1 and Conventional Tea Product obtained in section A of this example was used to prepare test tea samples according to the method described below. A proper amount of the respective tea product was added into sterile water to prepare a stock solution with a concentration of 100 mg/mL, followed by using a membrane filter with a pore size of 0.22 μm to conduct vacuum filtration and sterilization. The resulting stock solution was diluted with a respective complete medium shown in Table 3 below to form test tea samples with different concentrations. In other words, the thus obtained test tea samples to be used for treating a respective cancer/tumor cell line shown in Table 3 were prepared using the same complete medium as that for the respective cancer/tumor cell line. […] Specifically, each of the aforesaid commercially available agents was subjected to the method described below to prepare comparative test samples. A proper amount of a respective commercially available agent was dissolved in phosphate-buffered saline (PBS) to prepare a stock solution with a concentration of 5 mg/mL, followed by using a membrane filter with a pore size of 0.22 μm to conduct vacuum filtration and sterilization. The resulting stock solution was diluted with a respective complete medium shown in Table 3 below to form comparative test samples with different concentrations. To be specific, the comparative test samples prepared from the respective commercially available agent have the concentrations shown in Table 2 below. The thus obtained comparative test samples to be used for treating a respective cancer/tumor cell line shown in Table 3 were prepared using the same complete medium as that for the respective cancer/tumor cell line. […] The cultivation of each cancer/tumor cell line is described as follows. […] Afterwards, a cell suspension having a cell density of 1.0×10^4 cells/mL was prepared. […] As experimental groups, the tumor/cancer cells of each cell line were treated with the test tea samples prepared from one or more of the tea products and the comparative test samples prepared from one or more of the commercially available agents as obtained in section B of this example (for more detailed information about the tea product(s) and the commercially available product (s) used to treat each cell line, please see Table 4 below). To be specific, 6 to 10 test tea samples prepared from the same tea product and having different concentrations, as well as 6 to 10 comparative test samples prepared from the same commercially available agent and having different concentrations, were utilized to treat the tumor/cancer cells of each cell line. For each experimental group, 6 repetitions of tumor/cancer treatment were performed. For the control group, 100 μL of PBS was added to a well containing the medium and the cancer/tumor cells of the respective cell line. For the blank group, 100 μL of PBS was added to a well containing a complete medium the same as that used for cultivation of the cancer/tumor cells of the respective cell line. After the treatment described above, cultivation was conducted in an incubator (37° C., 100% relative humidity, 5% CO2) for 48 hours. Subsequently, the liquid containing the medium and the sample in the well was removed, and a respective complete medium (shown in Table 3 above) containing 10% CCK-8 (Cell Counting Kit-8)(Dojindo Molecular Technologies, Inc., Cat. No. CK04-13) was added. Cultivation was performed in an incubator (37° C.) for 2 to 4 hours, followed by gently shaking.

[2] = tested on: human gastric cancer cell line SMMC-7721; assay: In vitro antitumor/anticancer testing (CCK-8), SMMC-7721; details: Homo sapiens, SMMC-7721, 48 h
Procedure: as §1

[3] = tested on: human squamous cell carcinoma cell line A431; assay: In vitro antitumor/anticancer testing (CCK-8), A431; details: Homo sapiens, A-431, 48 h
Procedure: as §1

[4] = tested on: human colon cancer cell line HCT-116; assay: In vitro antitumor/anticancer testing (CCK-8), HCT-116; details: Homo sapiens, HCT-116, 48 h
Procedure: as §1

[5] = 0.3125 μg/mL, read-out: Percent growth inhibition
[6] = 0.625 μg/mL, read-out: Percent growth inhibition
[7] = 1.25 μg/mL, read-out: Percent growth inhibition
[8] = 2.5 μg/mL, read-out: Percent growth inhibition
[9] = 5 μg/mL, read-out: Percent growth inhibition
[10] = 10 μg/mL, read-out: Percent growth inhibition
[11] = 20 μg/mL, read-out: Percent growth inhibition
[12] = 40 μg/mL, read-out: Percent growth inhibition
[13] = 80 μg/mL, read-out: Percent growth inhibition

IC50 ([1]; read-out: IC50): 2.55 µg/mL (≈ 19.6 µM)
IC50 [2]: 0.383 µg/mL (≈ 2.94 µM)
IC50 ([3]; A431, read-out: IC50): 0.272 µg/mL (≈ 2.09 µM)
IC50 ([4]; read-out: IC50): 0.0493 µg/mL (≈ 0.379 µM)
Compound: O=c1[nH]cc(F)c(=O)[nH]1 [5-fluorouracil]
inhibition at 0.3125 µg/mL [1, 5]: -5.82%
inhibition at 0.625 µg/mL [1, 6]: -4.99%
inhibition at 1.25 µg/mL [1, 7]: -1.41%
inhibition at 2.5 µg/mL [1, 8]: 0.92%
inhibition at 5 µg/mL [1, 9]: 11.6%
inhibition at 10 µg/mL [1, 10]: 23.9%
inhibition at 20 µg/mL [1, 11]: 40.9%
inhibition at 40 µg/mL [1, 12]: 52.7%
inhibition at 80 µg/mL [1, 13]: 62.8%
inhibition at 0.3125 µg/mL [2, 5]: 28.6%
inhibition at 0.625 µg/mL [2, 6]: 62.4%
inhibition at 1.25 µg/mL [2, 7]: 81%
inhibition at 2.5 µg/mL [2, 8]: 82.7%
inhibition at 5 µg/mL [2, 9]: 84.3%
inhibition at 10 µg/mL [2, 10]: 81.6%
inhibition at 20 µg/mL [2, 11]: 79.1%
inhibition at 40 µg/mL [2, 12]: 80.2%
inhibition at 80 µg/mL [2, 13]: 91%
inhibition at 0.3125 µg/mL [3, 5]: 82.4%
inhibition at 0.625 µg/mL [3, 6]: 83.5%
inhibition at 1.25 µg/mL [3, 7]: 83.1%
inhibition at 2.5 µg/mL [3, 8]: 83%
inhibition at 5 µg/mL [3, 9]: 84.4%
inhibition at 10 µg/mL [3, 10]: 33.7%
inhibition at 20 µg/mL [3, 11]: 96.3%
inhibition at 40 µg/mL [3, 12]: 98.2%
inhibition at 80 µg/mL [3, 13]: 98.8%
inhibition at 0.3125 µg/mL [4, 5]: 70.1%
inhibition at 0.625 µg/mL [4, 6]: 32.4%
inhibition at 1.25 µg/mL [4, 7]: 36.4%
inhibition at 2.5 µg/mL [4, 8]: 88.5%
inhibition at 5 µg/mL [4, 9]: 89.9%
inhibition at 10 µg/mL [4, 10]: 91.9%
inhibition at 20 µg/mL [4, 11]: 95.8%
inhibition at 40 µg/mL [4, 12]: 97.9%
inhibition at 80 µg/mL [4, 13]: 99.5%
